Experimental findings from the supplement of paper PMC11208160 are described below.
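Also: IS621 bridge recombinase in Escherichia coli cells against a fixed T5 target plasmid.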

A short description of the series: recombinant UMI read abundance after kanamycin selection (control-corrected) (log10(CPM+1)); higher = more efficient recombination; extreme values may be limits of the assay; sequences stand for … in AGTGCAGAGAAAATCGGCCAGTTTTCTCTGCCTGCAGTCCGCATGCCGTGGGACCCCTTGGGTTCTAACCTGTTGCCTAGATTTATGCAGCGGACTGCCTTTCTCCCAAAGTGATAAACCGG…AGGTTGGTTTCACT; site = the 11-nt donor. How it is done:
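Pooled E. coli donor-specificity screen for the IS621 bridge recombinase. Each library member carries a reprogrammed 11-nt donor and a full-length LE bridge RNA expressed in cis from the natural promoter, with a paired donor-binding loop (8-nt LDG + 4-nt RDG) and a target-binding loop fixed to T5. It is co-electroporated with a T5 target plasmid; recombinase is induced with 0.07 mM IPTG and recombinants are selected on kanamycin. UMIs are counted as CPM, averaged over two biological replicates and corrected by the unselected control. Molecule = full bridge RNA written as DNA, built from the T5 scaffold: LDG = donor specificity nt 1-8, RDG = reverse complement of nt 8-11.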
In the case of “ACTTCGCCATGGACCGGTTTTCCCGGTAATCCGTATTTGCT (site ACTTCGCCTAG)”, the “recombinant UMI read abundance (log10)” value was found to be 0.0122. As for “ACTTGATCATGGACCGGTTTTCCCGGTAATCCGTATTTGGC (site ACTTGATCTGC)”, the figure is 1.24; as for “ACTTGCCCATGGACCGGTTTTCCCGGTAATCCGTATTTGAT (site ACTTGCCCTAT)”, 0.398; as for “ACTTGCCCATGGACCGGTTTTCCCGGTAATCCGTATTTGAT (site CCTTGCCCTAT)”, 0.0521. As for “ACTTGCCCATGGACCGGTTTTCCCGGTAATCCGTATTTGAT (site GCTTGCCCTAT)”, the figure is 0.0168. As for “ACTTGCCCATGGACCGGTTTTCCCGGTAATCCGTATTTGAT (site TCTTGCCCTAT)”, the figure is 0.0192; as for “ACTTTGGCATGGACCGGTTTTCCCGGTAATCCGTATTTGTA (site ACTTTGGCTTA)”, 1.26; as for “AGAAAACCATGGACCGGTTTTCCCGGTAATCCGTATTTGCG (site AGAAAACCTCG)”, 0. On to “AGAAACGCATGGACCGGTTTTCCCGGTAATCCGTATTTGCT (site AGAAAAGCTAG)”, for which the “recombinant UMI read abundance (log10)” value was 1.84. For “AGAAACGCATGGACCGGTTTTCCCGGTAATCCGTATTTGCT (site AGAAACGCTAG)”, the “recombinant UMI read abundance (log10)” value came out at 2.81. As for “AGAAACGCATGGACCGGTTTTCCCGGTAATCCGTATTTGCT (site AGAAAGGCTAG)”, the “recombinant UMI read abundance (log10)” value worked out at 0. As for “AGAAACGCATGGACCGGTTTTCCCGGTAATCCGTATTTGCT (site AGAAATGCTAG)”, the figure is 0; as for “AGAAAGACATGGACCGGTTTTCCCGGTAATCCGTATTTGCG (site AGAAAGACTCG)”, 2.63; as for “AGAAAGACATGGACCGGTTTTCCCGGTAATCCGTATTTGCG (site AGGAAGACTTG)”, 0. The same measure for “AGAAAGGCATGGACCGGTTTTCCCGGTAATCCGTATTTGCG (site AGAAAGGCTAG)”: 1.07. Turning to “AGAAAGGCATGGACCGGTTTTCCCGGTAATCCGTATTTGCG (site AGAAAGGCTCG)”, the “recombinant UMI read abundance (log10)” value stood at 1.64.

Turning to “AGAAAGGCATGGACCGGTTTTCCCGGTAATCCGTATTTGCG (site AGAAAGGCTGG)”, the “recombinant UMI read abundance (log10)” value was determined as 0. As for “AGAAAGGCATGGACCGGTTTTCCCGGTAATCCGTATTTGCG (site AGAAAGGCTTG)”, the figure is 1.15; as for “AGAAAGGCATGGACCGGTTTTCCCGGTAATCCGTATTTGCT (site AAAAAGGCTAG)”, 0; as for “AGAAAGGCATGGACCGGTTTTCCCGGTAATCCGTATTTGCT (site ACAAAGGCTAG)”, 0.00966. The same measure for “AGAAAGGCATGGACCGGTTTTCCCGGTAATCCGTATTTGCT (site AGAAAAGCTAG)”: 0; for “AGAAAGGCATGGACCGGTTTTCCCGGTAATCCGTATTTGCT (site AGAAACGCTAG)”: 0; for “AGAAAGGCATGGACCGGTTTTCCCGGTAATCCGTATTTGCT (site AGAAAGACTAG)”: 0. As for “AGAAAGGCATGGACCGGTTTTCCCGGTAATCCGTATTTGCT (site AGAAAGCCTAG)”, the figure is 0; as for “AGAAAGGCATGGACCGGTTTTCCCGGTAATCCGTATTTGCT (site AGAAAGGCTAA)”, 0.446. As to “AGAAAGGCATGGACCGGTTTTCCCGGTAATCCGTATTTGCT (site AGAAAGGCTAC)”, the “recombinant UMI read abundance (log10)” value was 0.019. As to “AGAAAGGCATGGACCGGTTTTCCCGGTAATCCGTATTTGCT (site AGAAAGGCTAG)”, the “recombinant UMI read abundance (log10)” value was 2.58. For the sequence “AGAAAGGCATGGACCGGTTTTCCCGGTAATCCGTATTTGCT (site AGAAAGGCTAT)”, the “recombinant UMI read abundance (log10)” value came to 1.27. For “AGAAAGGCATGGACCGGTTTTCCCGGTAATCCGTATTTGCT (site AGAAAGGCTCG)”, the “recombinant UMI read abundance (log10)” value was determined as 1.65.

As for “AGAAAGGCATGGACCGGTTTTCCCGGTAATCCGTATTTGCT (site AGAAAGGCTGG)”, the “recombinant UMI read abundance (log10)” value was 0.262. The same measure for “AGAAAGGCATGGACCGGTTTTCCCGGTAATCCGTATTTGCT (site AGAAAGGCTTG)”: 0.

Consider “AGAAAGGCATGGACCGGTTTTCCCGGTAATCCGTATTTGCT (site AGAAAGTCTAG)”, for which the “recombinant UMI read abundance (log10)” value was determined as 0. The same measure for “AGAAAGGCATGGACCGGTTTTCCCGGTAATCCGTATTTGCT (site AGAAATGCTAG)”: 0; for “AGAAAGGCATGGACCGGTTTTCCCGGTAATCCGTATTTGCT (site AGAACGGCTAG)”: 0.235; for “AGAAAGGCATGGACCGGTTTTCCCGGTAATCCGTATTTGCT (site AGAAGGGCTAG)”: 0.224. The same measure for “AGAAAGGCATGGACCGGTTTTCCCGGTAATCCGTATTTGCT (site AGAATGGCTAG)”: 0; for “AGAAAGGCATGGACCGGTTTTCCCGGTAATCCGTATTTGCT (site AGACAGGCTAG)”: 0. As for “AGAAAGGCATGGACCGGTTTTCCCGGTAATCCGTATTTGCT (site AGAGAGGCTAG)”, the figure is 0.846; as for “AGAAAGGCATGGACCGGTTTTCCCGGTAATCCGTATTTGCT (site AGATAGGCTAG)”, 1.23; as for “AGAAAGGCATGGACCGGTTTTCCCGGTAATCCGTATTTGCT (site AGCAAGGCTAG)”, 0. Consider “AGAAAGGCATGGACCGGTTTTCCCGGTAATCCGTATTTGCT (site AGGAAGGCTAG)”, for which the “recombinant UMI read abundance (log10)” value came out at 1.73.

In the case of “AGAAAGGCATGGACCGGTTTTCCCGGTAATCCGTATTTGCT (site AGTAAGGCTAG)”, the “recombinant UMI read abundance (log10)” value worked out at 1.3.

“AGAAAGGCATGGACCGGTTTTCCCGGTAATCCGTATTTGCT (site ATAAAGGCTAG)”: the “recombinant UMI read abundance (log10)” value came to 0. The same measure for “AGAAAGGCATGGACCGGTTTTCCCGGTAATCCGTATTTGCT (site CGAAAGGCTAG)”: 0.48; for “AGAAAGGCATGGACCGGTTTTCCCGGTAATCCGTATTTGCT (site GGAAAGGCTAG)”: 0.0101; for “AGAAAGGCATGGACCGGTTTTCCCGGTAATCCGTATTTGCT (site TGAAAGGCTAG)”: 0.932.

As to “AGAAAGTCATGGACCGGTTTTCCCGGTAATCCGTATTTGCT (site AGAAAGACTAG)”, the “recombinant UMI read abundance (log10)” value was determined as 0. As for “AGAAAGTCATGGACCGGTTTTCCCGGTAATCCGTATTTGCT (site AGAAAGCCTAG)”, the figure is 0; as for “AGAAAGTCATGGACCGGTTTTCCCGGTAATCCGTATTTGCT (site AGAAAGGCTAG)”, 0.

On to “AGAAAGTCATGGACCGGTTTTCCCGGTAATCCGTATTTGCT (site AGAAAGTCTAG)”, for which the “recombinant UMI read abundance (log10)” value is 2.63. With “AGAACAACATGGACCGGTTTTCCCGGTAATCCGTATTTGTG (site AGAACAACTCA)”, the “recombinant UMI read abundance (log10)” value is 1.29. As for “AGAATCACATGGACCGGTTTTCCCGGTAATCCGTATTTGAA (site AGAATCACTTT)”, the figure is 2.16.

For “AGACGAACATGGACCGGTTTTCCCGGTAATCCGTATTTGGA (site AGACGAACTTC)”, the “recombinant UMI read abundance (log10)” value came to 1.82.

For the sequence “AGACGCACATGGACCGGTTTTCCCGGTAATCCGTATTTGAA (site AGACGCACTTT)”, the “recombinant UMI read abundance (log10)” value amounted to 1.43. The same measure for “AGACGCGCATGGACCGGTTTTCCCGGTAATCCGTATTTGTA (site AGACGCGCTTA)”: 2.72. As for “AGACGGTCATGGACCGGTTTTCCCGGTAATCCGTATTTGGC (site AGACGGTCTGC)”, the figure is 3.28; as for “AGACTAACATGGACCGGTTTTCCCGGTAATCCGTATTTGCT (site AGACTAACTAG)”, 2.61.

For the sequence “AGACTAGCATGGACCGGTTTTCCCGGTAATCCGTATTTGTT (site AGACTAGCTAA)”, the “recombinant UMI read abundance (log10)” value turned out to be 1.07. As to “AGACTAGCATGGACCGGTTTTCCCGGTAATCCGTATTTGTT (site AGCCTAGCTAA)”, the “recombinant UMI read abundance (log10)” value came to 0.00926. The same measure for “AGACTAGCATGGACCGGTTTTCCCGGTAATCCGTATTTGTT (site AGGCTAGCTAA)”: 0.0149. As for “AGACTAGCATGGACCGGTTTTCCCGGTAATCCGTATTTGTT (site AGTCTAGCTAA)”, the figure is 0.0145; as for “AGAGACGCATGGACCGGTTTTCCCGGTAATCCGTATTTGAG (site AGAGACGCTCT)”, 2.67. As to “AGAGAGACATGGACCGGTTTTCCCGGTAATCCGTATTTGCA (site AGAGAGACTTG)”, the “recombinant UMI read abundance (log10)” value was 2.98. As for “AGAGAGACATGGACCGGTTTTCCCGGTAATCCGTATTTGCA (site AGGAAGACTTG)”, the figure is 1.56; as for “AGAGAGGCATGGACCGGTTTTCCCGGTAATCCGTATTTGCT (site AGAAAGGCTAG)”, 2.43.
